Source: patent publication US20230027361A1, “METTL3 MODULATORS” (priority 2019, published 2023)
Like-named read-outs stand apart in the source and are kept apart here.

Experiments:
METTL3/METTL14 = METTL3/METTL14 (Homo sapiens, UniProt Q86U44); assay: METTL3-14 Standard Enzyme Assay (METTL3 biochemical assay)
Method: Assays were performed in a 25 μl-volume in 384-well V-bottom polypropylene microplates (Greiner Bio-One, cat. No. 781280) at ambient temperature. Optimized 1× assay buffer was 20 mM HEPES pH 7.5, 50 mM KCl, 250 μM MgCl2, 1 mM DTT, 0.01% Tween, 0.01% BSG, 0.004 U/μl RNAseOUT (cat. No. 10777019, ThermoFisher Scientific, Waltham, Mass.). For compound screening METTL3/METTL14 (final concentration, f.c.=2.5 nM) was added using a Multidrop Combi (ThermoFisher Scientific, Waltham, Mass.) and preincubated for 5 min. Reactions were started by adding 3′ biotinylated RNA ([…]-biotin) (f.c.=100 nM) and 3H-SAM (f.c.=100 nM) substrates. Reactions proceeded for 30 minutes and were quenched with excess non-radioactive SAM (f.c.=15 μM). The reactions were then transferred to streptavidin-coated flashplates and incubated for 2 hours at 25° C. Following two washing cycles with 0.1% Tween-20, the plates were sealed and read on a TopCount (PerkinElmer, Waltham, Mass.) plate-based scintillation counter. For determination of kinetic parameters, reaction times were optimized so that measurements were taken during the initial velocity phase of the reaction.

METTL1/WDR4 = METTL1/WDR4 (Homo sapiens, UniProt Q9UBP6); assay: METTL1 Assay (METTL1 biochemical assay)
Chain of METTL1/WDR4 (Q9UBP6 whole entry, species assumed): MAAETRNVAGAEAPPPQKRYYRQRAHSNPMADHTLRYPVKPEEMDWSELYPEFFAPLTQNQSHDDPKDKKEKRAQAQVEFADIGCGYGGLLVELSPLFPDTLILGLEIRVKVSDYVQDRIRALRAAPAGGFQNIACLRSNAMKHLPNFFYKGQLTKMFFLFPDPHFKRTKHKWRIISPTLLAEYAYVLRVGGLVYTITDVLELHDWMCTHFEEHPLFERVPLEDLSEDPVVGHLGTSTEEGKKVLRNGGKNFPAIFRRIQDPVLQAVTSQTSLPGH
Chain of METTL1/WDR4 (P57081 whole entry partner, species assumed): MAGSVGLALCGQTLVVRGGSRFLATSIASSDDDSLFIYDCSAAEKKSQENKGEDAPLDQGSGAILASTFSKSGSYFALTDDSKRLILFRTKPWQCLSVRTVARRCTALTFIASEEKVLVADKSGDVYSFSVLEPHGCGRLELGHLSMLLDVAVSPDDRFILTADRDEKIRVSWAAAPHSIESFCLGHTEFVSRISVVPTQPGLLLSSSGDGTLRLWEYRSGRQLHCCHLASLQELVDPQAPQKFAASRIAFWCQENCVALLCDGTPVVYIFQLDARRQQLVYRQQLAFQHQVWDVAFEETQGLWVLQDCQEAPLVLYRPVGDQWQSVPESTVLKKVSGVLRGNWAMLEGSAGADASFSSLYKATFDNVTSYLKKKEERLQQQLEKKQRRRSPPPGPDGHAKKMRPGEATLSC
Method: Assays were performed in a 25 μl-volume in 384-well V-bottom polypropylene microplates (Greiner Bio-One, cat. No. 781280) at ambient temperature. Optimized 1× assay buffer was 20 mM HEPES pH 7.5, 50 mM KCl, 250 μM MgCl2, 1 mM DTT, 0.01% Tween, 0.01% BSG, 0.004 U/μl RNAseOUT (cat. No. 10777019, ThermoFisher Scientific, Waltham, Mass.). For compound screening METTL1/WDR4 (final concentration, f.c.=6.25 nM) was added using a Multidrop Combi (ThermoFisher Scientific, Waltham, Mass.) and preincubated for 5 min. Reactions were started by adding 3′ biotinylated RNA ([…]-biotin) (f.c.=25 nM) and 3H-SAM (f.c.=60 nM) substrates. Reactions proceeded for 20 minutes and were quenched with excess non-radioactive SAM (f.c.=15 μM). The reactions were then transferred to streptavidin-coated flashplates and incubated for 2 hours at 25° C. Following two washing cycles with 0.1% Tween-20, the plates were sealed and read on a TopCount (PerkinElmer, Waltham, Mass.) plate-based scintillation counter. For determination of kinetic parameters, reaction times were optimized so that measurements were taken during the initial velocity phase of the reaction.

PRMT5-MEP50 = PRMT5-MEP50 (Homo sapiens, UniProt O14744); assay: PRMT5 Assay (PRMT5 biochemical assay)
Chain of PRMT5-MEP50 (O14744 whole entry): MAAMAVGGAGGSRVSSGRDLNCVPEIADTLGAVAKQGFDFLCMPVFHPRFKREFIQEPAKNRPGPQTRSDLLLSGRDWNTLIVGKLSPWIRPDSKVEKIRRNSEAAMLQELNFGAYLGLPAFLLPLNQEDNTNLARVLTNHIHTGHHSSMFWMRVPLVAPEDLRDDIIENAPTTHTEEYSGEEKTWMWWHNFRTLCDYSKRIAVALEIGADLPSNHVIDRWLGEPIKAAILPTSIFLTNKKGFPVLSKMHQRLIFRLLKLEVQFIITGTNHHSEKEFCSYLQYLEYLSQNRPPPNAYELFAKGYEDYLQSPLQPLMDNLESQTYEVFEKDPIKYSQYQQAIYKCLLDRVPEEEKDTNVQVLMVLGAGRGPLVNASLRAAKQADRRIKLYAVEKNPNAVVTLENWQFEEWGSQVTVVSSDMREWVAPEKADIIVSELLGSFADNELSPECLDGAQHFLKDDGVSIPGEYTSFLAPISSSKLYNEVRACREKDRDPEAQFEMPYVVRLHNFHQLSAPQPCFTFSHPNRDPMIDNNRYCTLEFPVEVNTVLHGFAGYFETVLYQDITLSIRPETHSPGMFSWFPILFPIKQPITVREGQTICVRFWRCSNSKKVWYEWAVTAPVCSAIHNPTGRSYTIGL
Chain of PRMT5-MEP50 (Q9BQA1 whole entry partner): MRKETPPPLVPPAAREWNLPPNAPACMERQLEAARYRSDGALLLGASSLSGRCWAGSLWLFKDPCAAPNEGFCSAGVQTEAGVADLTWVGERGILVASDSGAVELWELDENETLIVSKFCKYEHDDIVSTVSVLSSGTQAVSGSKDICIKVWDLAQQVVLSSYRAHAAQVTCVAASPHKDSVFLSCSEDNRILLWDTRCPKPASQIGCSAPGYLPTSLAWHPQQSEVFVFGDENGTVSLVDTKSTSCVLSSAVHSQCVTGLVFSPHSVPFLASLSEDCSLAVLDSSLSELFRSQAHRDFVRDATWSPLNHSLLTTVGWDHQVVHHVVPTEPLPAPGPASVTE
Method: Assays were performed in a 25 μl-volume in 384-well V-bottom polypropylene microplates (Greiner Bio-One, cat. No. 781280) at ambient temperature. Optimized 1× assay buffer was 20 mM Tris-HCl pH 8.0, 1 mM DTT, […]. For compound screening PRMT5-MEP50 (final concentration, f.c.=2.5 nM) was added using a Multidrop Combi (ThermoFisher Scientific, Waltham, Mass.) and preincubated for 5 min. Reactions were started by adding 3′ biotinylated histone H4 peptide acetylated on serine 1 (Ac-[…]-Biotin) (f.c.=100 nM) and 3H-SAM (f.c.=250 nM) substrates. Reactions proceeded for 60 minutes and were quenched with excess non-radioactive SAM (f.c.=15 μM). The reactions were then transferred to streptavidin-coated flashplates and incubated for 2 hours at 25° C. Following two washing cycles with 0.1% Tween-20, the plates were sealed and read on a TopCount (PerkinElmer, Waltham, Mass.) plate-based scintillation counter. For determination of kinetic parameters, reaction times were optimized so that measurements were taken during the initial velocity phase of the reaction.

[1] = METTL3 biochemical assay, read-out: METTL3 IC50
[2] = read-out: METTL1 IC50; METTL1 biochemical assay
[3] = PRMT5 biochemical assay, read-out: PRMT5 IC50
[4] = METTL1 biochemical assay; read-out: METTL1 IC50

Chain of METTL3/METTL14 (Q86U44 whole entry, species assumed): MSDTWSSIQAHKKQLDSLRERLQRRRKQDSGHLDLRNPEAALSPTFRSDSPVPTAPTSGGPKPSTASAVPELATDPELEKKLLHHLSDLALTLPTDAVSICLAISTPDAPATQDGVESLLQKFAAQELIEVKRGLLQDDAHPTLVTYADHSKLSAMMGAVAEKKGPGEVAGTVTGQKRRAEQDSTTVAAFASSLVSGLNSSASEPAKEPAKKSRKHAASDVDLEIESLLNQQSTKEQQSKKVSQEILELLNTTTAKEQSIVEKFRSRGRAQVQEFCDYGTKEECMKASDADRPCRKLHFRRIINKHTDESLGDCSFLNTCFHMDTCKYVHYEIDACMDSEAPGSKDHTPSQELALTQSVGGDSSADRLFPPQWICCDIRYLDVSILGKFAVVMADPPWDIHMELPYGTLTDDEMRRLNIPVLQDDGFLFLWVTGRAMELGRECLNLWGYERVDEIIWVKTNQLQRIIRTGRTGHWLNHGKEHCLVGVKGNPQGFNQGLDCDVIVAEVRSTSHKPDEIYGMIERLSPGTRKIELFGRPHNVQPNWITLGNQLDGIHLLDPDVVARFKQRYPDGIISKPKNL
Chain of METTL3/METTL14 (Q9HCE5 whole entry partner, species assumed): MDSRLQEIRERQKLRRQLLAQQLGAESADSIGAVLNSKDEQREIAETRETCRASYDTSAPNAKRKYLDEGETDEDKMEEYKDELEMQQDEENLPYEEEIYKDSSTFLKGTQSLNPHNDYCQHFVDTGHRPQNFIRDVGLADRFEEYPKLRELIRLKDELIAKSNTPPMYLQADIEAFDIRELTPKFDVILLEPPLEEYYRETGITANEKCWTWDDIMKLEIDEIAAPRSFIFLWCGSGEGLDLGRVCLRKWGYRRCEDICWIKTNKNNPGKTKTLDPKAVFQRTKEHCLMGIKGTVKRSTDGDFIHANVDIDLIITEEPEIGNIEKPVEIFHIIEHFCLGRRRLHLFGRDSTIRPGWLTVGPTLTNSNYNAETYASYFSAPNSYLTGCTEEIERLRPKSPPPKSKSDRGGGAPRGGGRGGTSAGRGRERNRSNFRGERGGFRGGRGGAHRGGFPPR

SMILES	IC50 (METTL3/METTL14; [1]) [nM]	IC50 (METTL1/WDR4; [2]) [nM]	IC50 (PRMT5-MEP50; [3]) [nM]	further results
CNc1ccc2ccc(OC[C@H]3O[C@@H](n4cc(C5CCC(F)(F)CC5)c5c(N)ncnc54)[C@H](O)[C@@H]3O)cc2n1 [I-4]	< 10	> 1000	10 to 100	
Cc1cn([C@@H]2O[C@H](COc3ccc4ccc(N)nc4c3)[C@@H](O)[C@H]2O)c2ncnc(N)c12 [I-15]	> 1000	> 1000	100 to 1000	
Cc1cn([C@@H]2O[C@H](COc3ccc4ccc(NCC5CC5)nc4c3)[C@@H](O)[C@H]2O)c2ncnc(N)c12 [I-20]	> 1000	> 1000	100 to 1000	
CNc1ccc2ccc(OC[C@H]3O[C@@H](n4cc(C)c5c(N)ncnc54)[C@H](O)[C@@H]3O)cc2n1 [I-22]	> 1000	> 1000	100 to 1000	
CNc1ccc2ccc(OC[C@H]3O[C@@H](n4cc(Br)c5c(N)ncnc54)C[C@@H]3O)cc2n1 [I-47]	< 10	> 1000	100 to 1000	
Nc1ccc2ccc(CC[C@H]3C[C@@H](n4cc([C@@H]5CCOC5)c5c(N)ncnc54)[C@H](O)[C@@H]3O)cc2n1 [I-49]	100 to 1000	> 1000	< 10	
Nc1ccc2ccc(CC[C@H]3C[C@@H](n4cc([C@H]5CCOC5)c5c(N)ncnc54)[C@H](O)[C@@H]3O)cc2n1 [I-53]	100 to 1000	> 1000	< 10	
Cc1cc2c(N)ncnc2n1[C@@H]1C[C@H](COc2ccc3ccc(N)nc3c2)[C@@H](O)[C@H]1O [I-56]	> 1000	> 1000	< 10	
Cc1cc2c(N)ncnc2n1[C@@H]1C[C@H](CCc2ccc3nc(N)ccc3c2)[C@@H](O)[C@H]1O [I-57]	> 1000	> 1000	10 to 100	
CNc1ccc2ccc(CC[C@H]3C[C@@H](n4cc(C5CCOCC5)c5c(N)ncnc54)[C@H](O)[C@@H]3O)cc2n1 [I-58]	10 to 100	> 1000	< 10	
Cc1cc2c(NCCc3ccccc3)ncnc2n1[C@@H]1C[C@H](CCc2ccc3ccc(N)nc3c2)[C@@H](O)[C@H]1O [I-61]	> 1000	> 1000	< 10	
CCCc1cn([C@@H]2C[C@H](CCc3ccc4ccc(N)nc4c3)[C@@H](O)[C@H]2O)c2ncnc(N)c12 [I-62]	100 to 1000	> 1000	< 10	
Cn1cc(-c2cn([C@@H]3C[C@H](CCc4ccc5ccc(N)nc5c4)[C@@H](O)[C@H]3O)c3ncnc(N)c23)cn1 [I-63]				IC50 (METTL3/METTL14; read-out: METTL3 IC50, METTL3 biochemical assay): 100 to 1000 nM; IC50 (METTL1/WDR4; [4]): > 1000 nM; IC50 (PRMT5-MEP50; read-out: PRMT5 IC50, PRMT5 biochemical assay): < 10 nM
CNc1ccc2cc(CC[C@H]3C[C@@H](n4cc(C)c5c(N)ncnc54)[C@H](O)[C@@H]3O)ccc2n1 [I-64]	100 to 1000	> 1000	10 to 100	
Cc1cc2c(N)ncnc2n1[C@@H]1C[C@H](CCc2ccc3ccc(N)nc3c2)[C@@H](O)[C@H]1O [I-65]	> 1000	> 1000	< 10	
Cc1cn([C@@H]2C[C@H](CCc3ccc4ccc(N)nc4c3)[C@@H](O)[C@H]2O)c2ncnc(N)c12 [I-66]		> 1000	< 10	
CNc1ccc2ccc(OC[C@H]3O[C@@H](n4cnc5c(N)ncnc54)[C@H](O)[C@@H]3O)cc2n1 [I-76]	10 to 100	> 1000	< 10	
Nc1ncnc2c1ccn2[C@@H]1O[C@H](COc2ccc3ccc(N4CCOCC4)nc3c2)[C@@H](O)[C@H]1O [I-77]	10 to 100	> 1000	100 to 1000	
CCCNc1ccc2ccc(CC[C@H]3C[C@@H](n4ccc5c(N)ncnc54)[C@H](O)[C@@H]3O)cc2n1 [I-120]		> 1000	< 10	
Nc1ncnc2c1ccn2[C@@H]1C[C@H](CCc2ccc3ccncc3c2)[C@@H](O)[C@H]1O [I-131]		> 1000	10 to 100	

SMILES	IC50 (METTL3/METTL14; [1]) [nM]	IC50 (METTL1/WDR4; [2]) [nM]	IC50 (PRMT5-MEP50; [3]) [nM]	further results
Nc1ncnc2c1ccn2[C@@H]1C[C@H](CCc2ccc3ccc(NCC4CC4)nc3c2)[C@@H](O)[C@H]1O [I-132]			< 10	IC50 (METTL1/WDR4; [4]): > 1000 nM
Nc1ncnc2c1ccn2[C@@H]1C[C@H](CCc2ccc3cccnc3c2)[C@@H](O)[C@H]1O [I-133]			< 10	IC50 (METTL1/WDR4; [4]): > 1000 nM
Nc1ccc2ccc(CC[C@H]3C[C@@H](n4ccc5c(NCCc6ccccc6)ncnc54)[C@H](O)[C@@H]3O)cc2n1 [I-134]		> 1000	< 10	
Nc1ncnc2c1ccn2[C@@H]1C[C@H](CCc2ccc3ccccc3c2)[C@@H](O)[C@H]1O [I-136]		> 1000	> 1000	
Nc1ncnc2c1ccn2[C@@H]1C[C@H](CCc2ccc3cc(Br)cnc3c2)[C@@H](O)[C@H]1O [I-137]		> 1000	< 10	
Nc1ncnc2c1ccn2[C@H]1C[C@H](O)[C@@H](CCc2ccc3ccc(N4CCC4)nc3c2)O1 [I-198]	10 to 100		> 1000	
Cn1ccc(-c2cn([C@@H]3O[C@H](COc4ccc5ccc(NC67CC(C6)C7)nc5c4)[C@@H](O)[C@@H]3F)c3ncnc(N)c23)n1 [I-200]				IC50 (METTL3/METTL14): < 10 nM; IC50 (PRMT5-MEP50): 100 to 1000 nM
Cn1ccc(-c2cn([C@@H]3O[C@H](COc4ccc5ccc(N[C@H]6C[C@@H](N)C6)nc5c4)[C@@H](O)[C@@H]3F)c3ncnc(N)c23)n1 [I-201]				IC50 (METTL3/METTL14): 10 to 100 nM; IC50 (PRMT5-MEP50): 100 to 1000 nM
CN(c1ccc2ccc(OC[C@H]3O[C@@H](n4cc(-c5ccn(C)n5)c5c(N)ncnc54)[C@@H](F)[C@@H]3O)cc2n1)C1CCC1 [I-202]				IC50 (METTL3/METTL14): < 10 nM; IC50 (PRMT5-MEP50): > 1000 nM
Cn1ccc(-c2cn([C@@H]3O[C@H](COc4ccc5ccc(C(=O)N6CCC6)nc5c4)[C@@H](O)[C@@H]3F)c3ncnc(N)c23)n1 [I-203]				IC50 (METTL3/METTL14): > 1000 nM; IC50 (PRMT5-MEP50): > 1000 nM
Nc1ncnc2c1ccn2[C@@H]1O[C@H](COc2ccc3ccc(N[C@H]4C[C@@H](N)C4)nc3c2)[C@@H](O)[C@@H]1F [I-204]	100 to 1000		100 to 1000	
CNc1nc2cc(OC[C@H]3O[C@@H](n4cc(-n5ccc(C)n5)c5c(N)ncnc54)C[C@@H]3O)ccc2cc1F [I-207]				IC50 (METTL3/METTL14): > 1000 nM; IC50 (PRMT5-MEP50): > 1000 nM
CNc1nc2cc(OC[C@H]3O[C@@H](n4cc(-c5ccn(C)n5)c5c(N)ncnc54)[C@@H](F)[C@@H]3O)ccc2[nH]1 [I-208]				IC50 (METTL3/METTL14): < 10 nM; IC50 (PRMT5-MEP50): 100 to 1000 nM
Nc1ncnc2c1c(-n1cccn1)cn2[C@@H]1C[C@H](CCc2cc3nc(N4CCC4)ccc3cc2F)[C@@H](O)C1 [I-210]				IC50 (METTL3/METTL14): < 10 nM; IC50 (PRMT5-MEP50): > 1000 nM
CC1(C)COC(c2cn([C@@H]3O[C@H](COc4ccc5ccc(N6CCC6)nc5c4)[C@@H](O)[C@@H]3F)c3ncnc(N)c23)=N1 [I-213]	< 10		> 1000	
CN(C)Cc1cn([C@@H]2O[C@H](COc3ccc4ccc(N5CCC5)nc4c3)[C@@H](O)[C@@H]2F)c2ncnc(N)c12 [I-214]	< 10		> 1000	
Nc1ncnc2c1c(-c1cnccn1)cn2[C@@H]1O[C@H](COc2ccc3ccc(N4CCC4)nc3c2)[C@@H](O)[C@@H]1F [I-215]				IC50 (METTL3/METTL14): < 10 nM; IC50 (PRMT5-MEP50): > 1000 nM
CN(C)C(=O)c1cn([C@@H]2O[C@H](COc3ccc4ccc(N5CCC5)nc4c3)[C@@H](O)[C@@H]2F)c2ncnc(N)c12 [I-216]				IC50 (METTL3/METTL14): 10 to 100 nM; IC50 (PRMT5-MEP50): 100 to 1000 nM
Nc1ncnc2c1c([C@@H]1CCCO1)cn2[C@@H]1O[C@H](COc2ccc3ccc(N4CCC4)nc3c2)[C@@H](O)[C@@H]1F [I-224]	< 10		100 to 1000	
Nc1ncnc2c1c(-n1cccn1)cn2C1CC(CCc2ccc3ccc(NC4CCC4)nc3c2)C(O)C1F (stereo not shown) [I-235]				IC50 (METTL3/METTL14): 100 to 1000 nM; IC50 (PRMT5-MEP50): 10 to 100 nM
